Source: patent US4668499A, “Process for manufacturing hydrogen peroxide” (E. I. Du Pont de Nemours and Company, priority 1986, dated 1987)
Like-named read-outs stand apart in the source and are kept apart here.

Columns and labels:
[1] = activity in anthrone reoxidation (disappearance of 2-butylanthrone in fortified working solution under oxygen; liquid chromatography); settings: 0.1 weight % amine, 60° C.; for % Original Amount Remaining After 24 Hours: 2-Butylanthrone: 2 weight % 2-butylanthrone, control (no amine) 76
[2] = amine stability to oxidation under plant extraction-stage conditions (35 weight % aqueous hydrogen peroxide, 60° C., 24 hours; gas chromatography); settings: 0.1 weight % amine in working solution, shaken with equal volume 35 weight % aqueous hydrogen peroxide
[3] = cited from earlier work
[4] = 35% aqueous hydrogen peroxide
pKa of the amines = type: physicochemical; settings: in 50/50 methanol/water; acid titration using glass electrode
From the text: ^(1) pKa values in water from Patai, S., "The Chemistry of Amino
Groups,", Interscience Publishers, New York, New York (1968), Chapter 4.
^(2) pKa values in 50/50 methanol/water determined by acid
titration using glass electrode.

[5] = pilot plant cyclic anthraquinone process with amine addition
Protocol: A pilot plant facility, sized to be approximately 1/1000 that of a commercial unit, was charged with 1.5M lbs. of working solution withdrawn from the commercial unit. The working solution comprised a mixture of butyl and amyl anthraquinones and tetrahydroanthraquinones dissolved in a Cyclosol®/diisobutylcarbinol solvent. Using plant Pd/Al2 O3 slurry catalyst in the hydrogenator, operation of the pilot plant was commenced with a working solution flow of about 1.5 g.p.m. and at about 50° C. The average titer of the reduced working solution leaving the hydrogenator was about 38. "Titer" is an industrial term used as a measure of the depth or degree of reduction of the working solution, that is, the amount of hydroquinone formed expressed as LB. MOLS/10,000 gallons of working solution. Thirty-eight titer represents driving conditions for a commercial facility which is usually operated at 32 titer or less. As operating titer is increased, experience has shown that hydrogen peroxide production is increased but at the expense of increased quinone degradation and quinone use.
Over an initial operating period of two months in the pilot plant without amine addition, the anthrone content of the working solution increased steadily from 0.2 wt. % to 0.7 wt. % and was accompanied by a corresponding decrease in the quinone content of the working solution. Then, 0.05 wt. % of N,N-di-n-butylaniline was added to the pilot plant working solution hold tank. Over the next 36 hours a rapid drop in the anthrone content to about 0.2 wt. % was observed.
Operation of the pilot plant was continued at the 38 titer level for a further four and a half months with a daily production of about 250 lbs. hydrogen peroxide. The N,N-di-n-butylaniline content of the working solution was maintained at about 0.03 wt. % by means of small daily additions. […] Other operating parameters such as yield and product quality were unaffected.

[6] = in water, from Patai, The Chemistry of Amino Groups (1968), Chapter 4

Compound	% Original Amount Remaining After 24 Hours: 2-Butylanthrone [1] [%]	% Original Amount Remaining After 24 Hours: Amine [2] [%]	pKa (pKa of the amines)	further results
c1ccc(CN(Cc2ccccc2)Cc2ccccc2)cc1 [Example 4, Tribenzylamine, reference compound]	64	83		
c1ccc(Nc2ccccc2)cc1 [Example 3, Diphenylamine, reference compound]	82	96		pKa [3, 6]: 0.9
Cc1cccc(N)c1 [Example 2, m-Toluidine]				% Original Amount Remaining After 24 Hours: Amine [4]: 7%; pKa ([3]; water): 4.7
CCCCCCCCc1ccc(N(CCCC)CCCC)cc1 [Example 9, N,N--Di-n-butyl-4-octylaniline]	11	68	5.6	
CCCCN(CCCC)CCCC [Example 5, Tributylamine, reference compound]	0	2		Reaction was complete in (time) ([1]; 2-butylanthrone reoxidation): three; pKa [3, 6]: 10.9
CCCCCCN(CCCCCC)c1ccccc1 [Example 6, N,N--Di-n-hexyl-aniline]	36	86	5.0	

The next lines start with results.

% Original Amount Remaining After 24 Hours: 2-Butylanthrone [1] [%]	% Original Amount Remaining After 24 Hours: Amine [2] [%]	pKa (pKa of the amines)	Compound	further results
8	61	6.2	CCCCN(CCCC)c1ccc(C)c(C)c1 [Example 12, N,N--Di-n-butyl-3,4-dimethylaniline]	
13	76	5.2	CCCCN(CCCC)c1ccccc1 [Example 7, N,N-di-n-butylaniline]	anthrone content of the working solution after amine addition ([5]; 0.05 wt. % amine added, over the next 36 hours, from 0.7 wt. %, about 50° C., titer about 38): about 0.2 wt. %; hydrogenation activity ([5]; after addition of 0.05 wt. % amine): An improvement in hydrogenation activity was also noted; loss of quinones ([5]; amine maintained at about 0.03 wt. %, four and a half months, 38 titer): no measurable loss of quinones; pKa [3, 6]: 6.2
10	71	5.8	CCCCN(CCCC)c1ccc(C)cc1 [Example 10, N,N--Di-n-butyl-4-methylaniline]	
15	43	5.3	CCN(CC)c1ccccc1C [Example 8, N,N--Diethyl-2-methylaniline]	
5	55	6.0	CCN(CC)c1cccc(C)c1 [Example 11, N,N--Diethyl-3-methylaniline]	
